Results on 41 substances are retold here after patent publication US20170305992A1, “NOVEL PEPTIDES AND COMBINATION OF PEPTIDES FOR USE IN IMMUNOTHERAPY AGAINST VARIOUS TUMORS” (IMMATICS BIOTECHNOLOGIES GMBH, priority 2015, published 2017).

For the assay, the system named is CD8+ T cells. Description: In vitro T-cell priming assay with aAPCs loaded with peptide/MHC and anti-CD28, pMHC multimer readout (in vitro immunogenicity). The assay is classed as cell-based, human. The note with it: for Wells positive [%]: HLA-A*02 restricted peptides, Table 6B; for in vitro immunogenicity: donors: percentage of positive donors; for in vitro immunogenicity: donors / in vitro immunogenicity: wells: HLA class I peptides, Table 6A; for in vitro immunogenicity: wells: percentage of positive wells. The source says: In order to obtain information regarding the immunogenicity of the TUMAPs of the present invention, the inventors performed investigations using an in vitro T-cell priming assay based on repeated stimulations of CD8+ T cells with artificial antigen presenting cells (aAPCs) loaded with peptide/MHC complexes and anti-CD28 antibody.
In order to perform in vitro stimulations by artificial antigen presenting cells loaded with peptide-MHC complex (pMHC) and anti-CD28 antibody, the inventors first isolated CD8+ T cells from fresh HLA-A*02 leukapheresis products via positive selection using CD8 microbeads (Miltenyi Biotec, Bergisch-Gladbach, Germany) of healthy donors obtained from the University clinics Mannheim, Germany, after informed consent. PBMCs and isolated CD8+ lymphocytes were incubated in T-cell medium (TCM) until use consisting of RPMI-Glutamax (Invitrogen, Karlsruhe, Germany) supplemented with 10% heat inactivated human AB serum (PAN-Biotech, Aidenbach, Germany), 100 U/ml Penicillin/100 μg/ml Streptomycin (Cambrex, Cologne, Germany), 1 mM sodium pyruvate (CC Pro, Oberdorla, Germany), 20 μg/ml Gentamycin (Cambrex). 2.5 ng/ml IL-7 (PromoCell, Heidelberg, Germany) and 10 U/ml IL-2 (Novartis Pharma, Nürnberg, Germany) were also added to the TCM at this step. Generation of pMHC/anti-CD28 coated beads, T-cell stimulations and readout was performed in a highly defined in vitro system using four different pMHC molecules per stimulation condition and 8 different pMHC molecules per readout condition.
The purified co-stimulatory mouse IgG2a anti human CD28 Ab 9.3 (Jung et al., 1987) was chemically biotinylated using Sulfo-N-hydroxysuccinimidobiotin as recommended by the manufacturer (Perbio, Bonn, Germany). Beads used were 5.6 μm diameter streptavidin coated polystyrene particles (Bangs Laboratories, Ill., USA).
pMHC used for positive and negative control stimulations were A*0201/MLA-001 (peptide […] (SEQ ID NO. 289) from modified Melan-A/MART-1) and A*0201/DDX5-001 ([…] from DDX5, SEQ ID NO. 290), respectively.
800.000 beads/200 μl were coated in 96-well plates in the presence of 4×12.5 ng different biotin-pMHC, washed and 600 ng biotin anti-CD28 were added subsequently in a volume of 200 μl. Stimulations were initiated in 96-well plates by co-incubating […] CD8+ T cells with 2×10^5 washed coated beads in 200 μl TCM supplemented with 5 ng/ml IL-12 (PromoCell) for 3 days at 37° C. Half of the medium was then exchanged by fresh TCM supplemented with 80 U/ml IL-2 and incubating was continued for 4 days at 37° C. This stimulation cycle was performed for a total of three times. For the pMHC multimer readout using 8 different pMHC molecules per condition, a two-dimensional combinatorial coding approach was used as previously described (Andersen et al., 2012) with minor modifications encompassing coupling to 5 different fluorochromes. Finally, multimeric analyses were performed by staining the cells with Live/dead near IR dye (Invitrogen, Karlsruhe, Germany), CD8-FITC antibody clone SK1 (BD, Heidelberg, Germany) and fluorescent pMHC multimers. For analysis, a BD LSRII SORP cytometer equipped with appropriate lasers and filters was used. Peptide specific cells were calculated as percentage of total CD8+ cells. Evaluation of multimeric analysis was done using the FlowJo software (Tree Star, Oreg., USA). In vitro priming of specific multimer+CD8+ lymphocytes was detected by comparing to negative control stimulations.
Exemplary flow cytometry results after TUMAP-specific multimer staining for peptides of the invention are shown in FIG. 3 together with corresponding negative controls.

Take “11 (LLDPKTIFL; listed as Homo sapiens) [compound 11]”: the “Wells positive [%]” value was “++ (20% - 49% = ++)”. For the substance “263 (SIIEYLPTL; listed as Homo sapiens) [compound 263]”, the “Wells positive [%]” value is listed as “+ (<20% = +)”.

On to “117 (TLLEGISRA; listed as Homo sapiens) [compound 117]”, for which the “Wells positive [%]” value is “++ (20% - 49% = ++)”. Still for that read-out and setting: next, “253 (KLLAVIHEL; listed as Homo sapiens) [compound 253]”: “++ (20% - 49% = ++)”; “260 (ALNESLVEC; listed as Homo sapiens) [compound 260]”: “+ (<20% = +)”; “267 (YLLDMPLWYL; listed as Homo sapiens) [compound 267]”: “+ (<20% = +)”. Still for that read-out and setting: next, “233 (SLFESLEYL; listed as Homo sapiens) [compound 233]”: “+ (<20% = +)”; “77 (ALYGNVQQV; listed as Homo sapiens) [compound 77]”: “+ (<20% = +)”; “275 (AVPPPPSSV; listed as Homo sapiens) [compound 275]”: “++ (20% - 49% = ++)”. The same measure, in the same setting: as for “166 (LLGDSSFFL; listed as Homo sapiens) [compound 166]”, the entry is “++ (20% - 49% = ++)”; as for “4 (VLFGELPAL; listed as Homo sapiens) [compound 4]”, “+ (<20% = +)”. As to “288 (SLYKGLLSV; listed as Homo sapiens) [compound 288]”, the “in vitro immunogenicity: donors” value is listed as “++++ (> = 70% = ++++)” and the “in vitro immunogenicity: wells” value is given as “++ (21% - 49% = ++)”.

“27 (GLLGKVTSV; listed as Homo sapiens) [compound 27]”: the “Wells positive [%]” value is reported as “+ (<20% = +)”.

Consider “89 (SLAETIFIV; listed as Homo sapiens) [compound 89]”, for which the “Wells positive [%]” value is “+ (<20% = +)”.

Regarding “92 (RLFEEVLGV; listed as Homo sapiens) [compound 92]”, the “Wells positive [%]” value is listed as “++ (20% - 49% = ++)”. On the same count and under the same terms, next, “157 (ILQDGQFLV; listed as Homo sapiens) [compound 157]”: “+ (<20% = +)”; “251 (LLWGNLPEI; listed as Homo sapiens) [compound 251]”: “++ (20% - 49% = ++)”; “255 (FLMKNSDLYGA; listed as Homo sapiens) [compound 255]”: “+ (<20% = +)”. Still for that read-out and setting: as for “254 (ALGDKFLLRV; listed as Homo sapiens) [compound 254]”, the entry is “+ (<20% = +)”. For the substance “264 (TLHDQVHLL; listed as Homo sapiens) [compound 264]”, the “Wells positive [%]” value was “+ (<20% = +)”. With “287 (KIQEILTQV; listed as Homo sapiens) [compound 287]”, the “in vitro immunogenicity: donors” value was “+++ (50% - 69% = +++)” and the “in vitro immunogenicity: wells” value is “+ (<20% = +)”. Consider “50 (ILLSVLHQL; listed as Homo sapiens) [compound 50]”, for which the “Wells positive [%]” value is reported as “+ (<20% = +)”. Consider “14 (YTFSGDVQL; listed as Homo sapiens) [compound 14]”, for which the “Wells positive [%]” value is given as “+ (<20% = +)”. On the same count and under the same terms, as for “17 (GLLPSAESIKL; listed as Homo sapiens) [compound 17]”, the entry is “+ (<20% = +)”; as for “234 (VLLNEILEQV; listed as Homo sapiens) [compound 234]”, “++ (20% - 49% = ++)”.

As for “257 (KLIDHQGLYL; listed as Homo sapiens) [compound 257]”, the “Wells positive [%]” value is listed as “+ (<20% = +)”.

On to “246 (ALAGIVTNV; listed as Homo sapiens) [compound 246]”, for which the “Wells positive [%]” value is listed as “+ (<20% = +)”.

Turning to “121 (ALYVQAPTV; listed as Homo sapiens) [compound 121]”, the “Wells positive [%]” value is “+ (<20% = +)”.

On to “29 (KMISAIPTL; listed as Homo sapiens) [compound 29]”, for which the “Wells positive [%]” value was “+ (<20% = +)”. The same measure, in the same setting: as for “248 (VLMQDSRLYL; listed as Homo sapiens) [compound 248]”, the entry is “++ (20% - 49% = ++)”.

As for “66 (AMFPDTIPRV; listed as Homo sapiens) [compound 66]”, the “Wells positive [%]” value is listed as “+ (<20% = +)”. Same read-out and setting: next, “101 (SLLEVNEASSV; listed as Homo sapiens) [compound 101]”: “+ (<20% = +)”. For “242 (KLQEEIPVL; listed as Homo sapiens) [compound 242]”, the “Wells positive [%]” value is on record as “+ (<20% = +)”.

For “35 (VIIKGLEEI; listed as Homo sapiens) [compound 35]”, the “Wells positive [%]” value is recorded as “+ (<20% = +)”. Still for that read-out and setting: as for “48 (KISDFGLATV; listed as Homo sapiens) [compound 48]”, the entry is “++ (20% - 49% = ++)”.

In the case of “97 (KLFEKSTGL; listed as Homo sapiens) [compound 97]”, the “Wells positive [%]” value is reported as “+ (<20% = +)”. Same read-out and setting: next, “102 (GLYPVTLVGV; listed as Homo sapiens) [compound 102]”: “+ (<20% = +)”; “9 (SLITGQDLLSV; listed as Homo sapiens) [compound 9]”: “+ (<20% = +)”.

As for “7 (ALLQALMEL; listed as Homo sapiens) [compound 7]”, the “Wells positive [%]” value is given as “++ (20% - 49% = ++)”.

For the substance “236 (KMSELQTYV; listed as Homo sapiens) [compound 236]”, the “Wells positive [%]” value is on record as “+ (<20% = +)”. Same read-out and setting: as for “261 (GLAALAVHL; listed as Homo sapiens) [compound 261]”, the entry is “++ (20% - 49% = ++)”.
